These results are taken from the METLIN SMRT retention time set (Domingo-Almenara et al. 2019).

The data set can be described thus: gradient 5% acetonitrile 3 min, to 50% in 2 min, to 85% in 15 min, held 3 min, 100 µL/min. Particulars: column: Zorbax Extend-C18 2.1 x 50 mm; eluents: water / acetonitrile, 0.1% formic acid. In short, it runs like this:
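A Zorbax Extend-C18 column (2.1 × 50 mm, 1.8 μm) run at 100 μL/min with water and acetonitrile, both containing 0.1% formic acid, separated mixtures of ~100 pure standards. The HPLC was coupled to a quadrupole time-of-flight mass spectrometer operated in positive and negative ionization mode, with dead and dwell volumes of 40 μL and 900 μL. Each retention time was taken from a computationally picked adduct peak that was then manually inspected.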
Compound `O=C(c1cccs1)N1CCN(c2nnc3ccccn23)CC1` showed an RP-LC retention time of 608 s.

On to `CC1CCCN(Cc2nc(Cn3ccn4nc(-c5ccc(F)cc5)cc4c3=O)no2)C1` (configuration not stated), for which the RP-LC retention time came to 687 s. The value for `COC(=O)c1cnc2nc(C)ccc2c1Nc1ccc(Cl)cc1` was 705 s; that for `Cc1nc(N2CCN(C)CC2)cc(N2CCN(C(=O)c3ccc(Br)o3)CC2)n1` was 570 s. The value for `Fc1ccc(-c2noc(-c3ccc(NC4CC4)nc3)n2)cc1` was 901 s. The compound `CCCn1cc(C(=O)NCC(=O)OCC)c(S(=O)(=O)N2CCN(c3ccccc3Cl)CC2)n1` yielded an RP-LC retention time of 1090 s.

Take `Cc1cc(F)ccc1NC(=O)c1cc2n(n1)CC(C)(C(=O)NC1CCCCC1)N(C)C2=O` (configuration not stated): the RP-LC retention time stood at 776 s.

The compound `CCOc1ccc(NC(=O)c2cccc(-n3cnnn3)c2)cc1` gave an RP-LC retention time of 737 s.

The compound `O=C(Nc1ccc2c(c1)N(C(=O)c1cccs1)CC2)c1ccc2c(c1)OCO2` came in with an RP-LC retention time of 843 s. As for `CN1C(=O)c2[nH]nc(-c3ccccc3)c2C1c1cccc(O)c1` (configuration not stated), the figure is 687 s; as for `CCn1cc(-c2nc(C)c(C(=O)NCc3cccc(OC)c3)s2)c2cccnc21`, 904 s; as for `Cc1oc(-c2cccc(Cl)c2)nc1Cn1nnc(-c2nc(-c3ccc(F)cc3)no2)c1C`, 869 s. `Cc1cc(C)n(CCNC(=O)NCc2cccs2)n1` gave an RP-LC retention time of 593 s. The value for `Cc1ccccc1CNC(=O)C1(C)Oc2cccnc2N(C(C)C)C1=O` (configuration not stated) was 978 s; that for `CCc1nc2ccccc2c(=O)n1Cc1noc(C2CC(=O)N(c3ccccc3)C2)n1` (configuration not stated) was 823 s; that for `NS(=O)(=O)c1ccc(CCNCc2ccc(-c3ccccc3F)o2)cc1` was 643 s. On to `COc1cc(OC)c(NC(=O)N2CC(c3nc(C(C)C)nn3C)C2)cc1Cl`, for which the RP-LC retention time was determined as 695 s.

Compound `CN(CCc1noc(-c2ccccc2)n1)C(=O)Nc1cccc(Br)c1` registered an RP-LC retention time of 977 s. `CC(NC(=O)c1cccnc1)c1nc(-c2ccccc2)no1` (configuration not stated) showed an RP-LC retention time of 694 s. The value for `CN(C)c1cccc(C(=O)NC2CCN(c3cc(-c4cccs4)[nH]n3)C2)c1` (configuration not stated) was 668 s; that for `CCc1nc2cc(-c3noc(Cc4ccccc4F)n3)ccc2o1` was 1050 s; that for `Cc1ccccc1OCC1c2ccsc2CCN1C(=O)CN(CC1CCCO1)C(=O)NC(C)(C)C` (configuration not stated) was 1140 s.

For `O=C(Nc1nc2c(s1)CN(C(=O)Nc1ccc(Cl)c(Cl)c1)CC2)c1cnccn1`, the RP-LC retention time was 811 s. The value for `CSc1ccc(CNC(=O)Cc2nnc(-c3ccc4ncccc4c3)o2)cc1` was 716 s; that for `O=C(NC1CCCC1)c1c2c(nc3ccccc13)CCC2` was 637 s. The value for `CC1CCN(c2cc(-n3cnc(C(=O)NCc4ccc5c(c4)OCO5)c3)ncn2)CC1` was 964 s; that for `COc1ccc(NC(=O)C2CCCN(c3ncnc4c3oc3ccccc34)C2)cc1` (configuration not stated) was 747 s. As for `CCOC(=O)c1csc(NC(=O)c2ccccc2Br)n1`, the figure is 780 s; as for `CCc1cccc(C)c1NC(=O)C1CCCN(S(=O)(=O)c2cc(-c3noc(C)n3)cs2)C1` (configuration not stated), 995 s.

`Cc1cccc2nnc(N3CCN(C(=O)c4ccc(Cl)cc4)CC3)n12`: the RP-LC retention time worked out at 629 s. The value for `O=C(C1CCCN(S(=O)(=O)N2CCCCC2)C1)N1CCN(Cc2ccc3c(c2)OCO3)CC1` (configuration not stated) was 679 s.

Consider `Cn1c(Nc2ccc(C(F)(F)F)cc2)nc2cc(Oc3ccnc(-c4ncc(C(F)(F)F)[nH]4)c3)ccc21`, for which the RP-LC retention time came to 994 s.
